{
  "source": "patent US20130096159A1",
  "about": "“INHIBITORS OF HUMAN 12-LIPOXYGENASE” (The United States of America, as represented the Secretary …, priority 2010, published 2013)",
  "key": {"human 12-lipoxygenase": {"biological_target": "T1, human 12-lipoxygenase (Homo sapiens, UniProt P18054)", "T1 sequence (P18054 1-663)": "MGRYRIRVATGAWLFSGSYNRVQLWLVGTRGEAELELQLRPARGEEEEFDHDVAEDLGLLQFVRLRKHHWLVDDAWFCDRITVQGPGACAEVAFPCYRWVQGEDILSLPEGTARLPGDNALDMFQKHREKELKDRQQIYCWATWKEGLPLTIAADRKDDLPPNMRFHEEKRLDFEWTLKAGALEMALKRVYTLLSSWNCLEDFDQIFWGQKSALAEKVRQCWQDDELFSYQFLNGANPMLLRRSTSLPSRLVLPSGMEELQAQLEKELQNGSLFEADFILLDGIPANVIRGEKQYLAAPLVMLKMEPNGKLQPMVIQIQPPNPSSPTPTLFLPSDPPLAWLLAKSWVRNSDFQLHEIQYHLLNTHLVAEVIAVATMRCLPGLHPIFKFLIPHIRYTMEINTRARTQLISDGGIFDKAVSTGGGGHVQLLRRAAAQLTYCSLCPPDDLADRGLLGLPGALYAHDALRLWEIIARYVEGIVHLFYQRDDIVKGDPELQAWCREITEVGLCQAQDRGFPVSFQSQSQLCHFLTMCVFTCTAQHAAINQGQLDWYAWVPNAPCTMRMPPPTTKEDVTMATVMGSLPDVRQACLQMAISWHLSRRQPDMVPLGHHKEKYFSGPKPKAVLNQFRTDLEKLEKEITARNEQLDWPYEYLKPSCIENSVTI", "assay": "human 12-lipoxygenase inhibition (12hLO) assay, absorbance at 234 nm", "format": "biochemical"}, "[1]": {"tested_on": "P-selectin on the surface of human platelets", "assay": "α-granule secretion, P-selectin expression by flow cytometry", "format": "cell-based", "details": "vs agonists alone (thrombin, PAR1-AP, PAR4-AP, ADP); FIG. 4", "protocol": "Human platelets were obtained from healthy volunteers from within the Thomas Jefferson University community and the Philadelphia area. These studies were approved by the Thomas Jefferson University Institutional Review Board. Informed consent was obtained from all donors before blood draw. Blood was centrifuged at 200 g for 15 min at room temperature. Platelet-rich plasma was transferred into a conical tube containing a 10% acid citrate dextrose solution (39 mM citric acid, 75 mM sodium citrate, and 135 mM glucose, pH 7.4) and centrifuged at 2000 g for 15 min at room temperature. Platelets were resuspended in Tyrode's buffer (12 mM NaHCO3, 127 mM NaCl, 5 mM KCl, 0.5 mM NaH2PO4, 1 mM MgCl2, 5 mM glucose, and 10 mM HEPES), and the final platelet concentration was adjusted as indicated after counting using a Coulter counter (Beckman Coulter, Fullerton, Calif.). Reported results are the data obtained using platelets from at least three different subjects.\nWashed platelets were obtained as described in Example 10. Flow cytometry was used to measure the secretion of α-granules. Specifically, P-selectin expression was used to detect α-granule secretion. […] The fluorescence intensity of 10,000 platelets was immediately measured using a C6 Accuri flow cytometer. […]"}},
  "data": [
    {"compound": "CCC(=O)NC(c1cccs1)c1cc([N+](=O)[O-])c2cccnc2c1O", "note": "(stereo not drawn) [Compound 1, N-((8-hydroxy-5-nitroquinolin-7-yl)(thiophen-2-yl)methyl)propionamide]", "values": [
      {"measurement": "selectivity for inhibition of human 12-lipoxygenase as compared with human 5-lipoxygenase, 15-lipoxygenase-1 and 15-lipoxygenase-2", "setting": "human 12-lipoxygenase", "value": "exhibited selectivity"},
      {"measurement": "IC50", "setting": "human 12-lipoxygenase; 12hLO Inhibition, Table 1, read-out: IC50 (μM) [± SD μM]", "value": 0.8, "unit": "µM"},
      {"measurement": "expression of P-selectin on the surface of the platelets", "setting": "[1]", "value": "decreased expression of P-selectin"}
    ]}
  ]
}
